Test results reported in patent US5563142A, “Diaromatic substituted compounds as anti-HIV-1 agents” (The Upjohn Company, priority 1994, dated 1996).

Biological target: T1, viral reverse transcriptase (Human immunodeficiency virus type 1 group M subtype B, UniProt P04585)
T1 construct: Viral reverse transcriptase is found in extracts from bacterial clones; made in house; host or cells: Escherichia coli (extracts of bacterial clones, by the procedure of Larder et al., EMBO J. 6:3133-3137, 1987)
Test: Viral reverse transcriptase inhibition, cell free assay
Type: biochemical, human immunodeficiency virus (HIV-1)
Conditions: poly rC or poly rG template; for inhibition at 100 µM: read-out: RT % INHIBITION (100 μM), 100 μM
Text: The utility of the diaromatic substituted piperazines (III), the anti-AIDS piperazines (IV) and the indoles (V) of this invention can be determined by their ability to inhibit viral reverse transcriptase, an enzyme essential for human immunodeficiency virus replication. This enzyme has characteristics which differentiate it from other known cellular polymerases and it is a unique enzyme which is not found in uninfected cells. Viral reverse transcriptase is found in extracts from bacterial clones prepared according to the procedure described in AIDS Virus Reverse Transcriptase defined by high level expression in Escherichia coli, EMBO J. 6:3133-3137 (1987). Inhibition of this enzyme is determined in a cell free assay which measures the level of radioactive precursors incorporated into DNA. Extracts prepared according to the procedure of Science, 1125-1129 (1981) are incubated in a mixture of inhibitor, 20 mM dithiothreitol, 60 mM sodium chloride, 0.05% NP-40, 10 mM magnesium chloride, 50 mM Tris pH 8.3, 10 μM [^35 S]-labeled deoxynuleoside-5'-triphosphate, 10 μg/ml RNA template (poly rC or poly rG) and 5 μg/ml DNA primer (oligo dG or oligo dT) for 30 minutes at 37° C. Incorporation of radio-labeled percursor is determined by spotting aliquots of the reaction mixture on DE81 paper, washing the papers to remove unincorporated percursor, drying and determining counts. The results (IC50 means the concentration, in μM of drug, required to inhibit the reverse transcriptase activity to the extent of 50%) of various assay(s) are combined and reported as % inhibition and IC50 (calculated).
^1 Viral reverse transcriptase is found in extracts from bacterial
clones prepared according to the procedure described by Larder, B.,
Purifoy D., Powell, K. and Darby, G., AIDS virus reverse transcriptase
defined by high level expression in Escherichia coli., EMBO J. 6,
3133-3137 (1987). Inhibition of this enzyme is determined in a cell free
assay which measures the level of radioactive precursors incorporated int
DNA. Extracts prepared according to the procedure of Kleid, D. G., et
al., Science, 1125-1129 (1981) are incubated in a mixture of inhibitor, 2
mM dithiothreitol, 60 mM sodium chloride, 0.05% NP40, 10 mM magnesium
chloride, 50 mM Tris pH 8.3, 10 μM [^35 Slabeled
deoxynucleoside5triphosphate, 10 μg/ml RNA template (poly rC or poly
rG) and 5 μg/ml DNA primer (oligo dG or oligo dT) for 15 minutes at
37°. Incorporation of radio labeled precursor is determined by
harvesting the trichloroacetic acid precipitated reaction mixtures on
glass fiber filters, drying, and determining counts. The results of
various assays are combined and reported as % inhibition at a 100 μM

Row | Compound | inhibition at 100 µM [%] | RT % INHIBITION (100 μM)
1 | CCNc1cccnc1N1CCN(C(=O)c2cc3cc(OCc4ccccc4)ccc3[nH]2)CC1 [Example 35, 1-[5-Benzyloxyindolyl-2-carbonyl]-4-[3-(ethylamino)-2-pyridinyl]piperazine] | 57 to 70 | –
2 | CC(C)(C)Nc1nccnc1N1CCN(C(=O)c2cc3cc(F)ccc3[nH]2)CC1 [Example 51, 1-[5-Fluoroindolyl-2-carbonyl]-4-[3-(1,1-dimethylethylamino)-2-pyrazinyl]piperazine] | 55 | –
3 | O=C(c1cc2ccccc2[nH]1)N1CCN(c2nccnc2NC2CC2)CC1 [Example 57, 1-(Indolyl-2-carbonyl)-4-(3-cyclopropylamino-2-pyrazinyl)piperazine] | 52 to 65 | –
4 | CC(C)Nc1cccnc1OCCOC(=O)c1cc2ccccc2[nH]1 [Example 59, 2-(2-(Indolyl-2-carboxy)ethoxy)-3-(1-methylethylamino)pyridine] | 61 to 75 | –
5 | CC(C)Nc1cccnc1N1CCN(C(=O)c2cc3cc(OCC(=O)OCc4ccccc4)ccc3[nH]2)CC1 [Example 67, 1-[5-(Benzyloxycarbonylmethoxy)indolyl-2-carbonyl]-4-[3-(1-methylethylamino)-2-pyridinyl]piperazine] | 60 to 84 | –
6 | CC(C)Nc1cccnc1N1CCN(C(=O)c2cc3cc(OCC(=O)O)ccc3[nH]2)CC1 [Example 68, 1-[5-(Carboxymethoxy)indolyl-2-carbonyl]-4-[3-(1-methylethylamino)-2-pyridinyl]piperazine] | – | 78-95%
7 | COc1c(C)cc(C(=O)N2CCN(c3ncccc3NC(C)C)CC2)cc1C [Example 78, 1-[3,5-Dimethyl-4-methoxybenzoyl]-4-[3-(1-methylethylamino)-2-pyridinyl]piperazine] | 74 | –
8 | CCNc1cccnc1N1CCN(Cc2cc3cc(OC)ccc3[nH]2)CC1 [Example 80] | 61 to 70 | –
9 | CC(C)Nc1cccnc1N1CCN(C(=O)c2cc3cc(Br)ccc3[nH]2)CC1 [Example 93, 1-[5-Bromoindolyl-2-carbonyl]-4-[3-(1-methylethylamino)-2-pyridinyl]piperazine] | 87 | –
10 | CCC(CC)Nc1cccnc1N1CCN(C(=O)c2cc3ccccc3[nH]2)CC1 [Example 100] | 81 to 82 | –
11 | COc1ccc2[nH]c(C(=O)N(C)CCN(C)c3ncccc3NC(C)C)cc2c1 [Example 107, N,N'-Dimethyl-N-(5-methoxyindolyl-2-carbonyl)-N'-[3-(1-methylethylamino)-2-pyridyl]ethylenediamine] | 77 to 87 | –
12 | CC(C)Nc1cccnc1N(C)CCN(C)C(=O)c1cc2cc(F)ccc2[nH]1 [Example 108, N,N'-Dimethyl-N-(5-fluoroindolyl-2-carbonyl)-N'-(3-(1-methylethylamino)-2-pyridyl)ethylenediamine] | 77 to 89 | –
13 | CC(C)Nc1cccnc1N1CCN(C(=O)c2cc3cccnc3[nH]2)CC1 [Example 109] | 56 to 82 | –
14 | CCNc1cccnc1N(C)CCCN(C)C(=O)c1cc2ccccc2[nH]1 [Example 111] | 86 to 92 | –
15 | CCNc1cccnc1N(C)CCCCCCN(C)C(=O)c1cc2ccccc2[nH]1 [Example 112] | 74 to 82 | –
16 | CC(C)Nc1cccnc1N1CCN(C(=O)c2cc3ccc(C=O)cc3[nH]2)CC1 [Example 113] | 92 to 96 | –
17 | O=C(c1cc2ccccc2[nH]1)N1CCN(c2ncccc2NCCF)CC1 [Example 117, 1-[Indolyl-2-carbonyl]-4-[3(2-fluoroethylamino)-2-pyridinyl]piperazine] | 92 | –
18 | CC(C)(C)Nc1ccnnc1N1CCN(C(=O)c2cc3cc(OCc4ccccc4)ccc3[nH]2)CC1 [Example 119, 1-[5-Benzyloxyindolyl-2-carbonyl]-4-[4-(1,1-dimethylethylamino)-2-pyridazinyl]piperazine] | 53 to 58 | –
19 | CC(C)(C)Nc1ccnnc1N1CCN(C(=O)c2cc3cc(O)ccc3[nH]2)CC1 [Example 120, 1-[5-Hydroxyindolyl-2-carbonyl]-4-[4-(1,1-dimethylethylamino)-2-pyridazinyl]piperazine] | 87 to 90 | –
20 | CC(C)Nc1cccnc1N1CCN(C(=O)c2cc3ccc4ccccc4c3[nH]2)CC1 [Example 121, 1-[Benz[g]indolyl-2-carbonyl]-4-[3-(1-methylethylamino)-2-pyridinyl]piperazine] | 64 to 70 | –
21 | CC(C)Nc1cccnc1N1CCN(C(=O)c2cc3c(ccc4ccccc43)[nH]2)CC1 [Example 122, 1-[Benz[e]indolyl-2-carbonyl]-4-[3-(1-methylethylamino)-2-pyridinyl]piperazine] | 84 | –
22 | CCNc1cccnc1N(C)CCN(C)C(=O)c1cc2ccccc2[nH]1 [Example 123, N,N'-Dimethyl-N-(indolyl-2-carbonyl)-N'-(3-ethylamino-2-pyridyl)ethylenediamine] | 47 to 60 | –
23 | CC(C)Nc1cccnc1N1CCN(C(=O)c2cccc3cc[nH]c23)CC1 [Example 128, 1-[Indolyl-7-carbonyl]-4-[3-(1-methylethylamino)-2-pyridinyl]-piperazine] | 89 to 98 | –
24 | CC(C)Nc1cccnc1N1CCN(C(=O)c2cccc3c2NCC3)CC1 [Example 129, 1-[2,3-Didehydroindolyl-7-carbonyl]-4-[3-(1-methylethylamino)-2-pyridinyl]piperazine] | 68 to 84 | –
25 | CCNc1cccnc1N1CCN(C(=O)c2cccc3c2NCC3)CC1 [Example 130] | 48 to 59 | –
26 | CC(C)Nc1cccnc1N(C)C1CCN(C(=O)c2cc3ccccc3[nH]2)CC1 [Example 131, 1-(Indolyl-2-carbonyl)-4-(N-methyl-N-(3-(1-methylethylamino)-2-pyridinyl)amino)piperidine] | 85 to 97 | –
